Experimental data from patent publication US8969389B2, “Substituted 6-methylnicotinamides as mGluR5 positive allosteric modulators” (Vanderbilt University, priority 2010, dated 2015).

molecular target: T1, rat mGluR5 (Rattus norvegicus, UniProt P31424); assay: Potentiation of glutamate response in HEK cells transfected with rat mGluR5 (Ca2+ fluorescence, FDSS); assay type: cell-based; conditions: (R) and (S) enantiomers, Tables 3A/3B; read-out: mGluR5 EC50
T1 construct: expressed in transfected cells; host or cells: HEK (human embryonic kidney) cells
Method: Human embryonic kidney (HEK) cells transfected with rat mGluR5 were plated in clear bottom assay plates for assay in a Functional Drug Screening System (FDSS). In the alternative assay, HEK cells transfected with human mGluR5 (H10H cell line) were plated for assay in the FDSS. […] The cells were loaded with a Ca^2+-sensitive fluorescent dye (e.g., Fluo-4), and the plates were washed and placed in the FDSS instrument. After establishment of a fluorescence baseline for twelve seconds, the compounds of the present invention were added to the cells, and the response in cells was measured. Five minutes later, an mGluR5 agonist (e.g., glutamate, 3,5-dihydroxyphenylglycine, or quisqualate) was added to the cells, and the response of the cells was measured. Potentiation of the agonist response of mGluR5 by the compounds in the present invention was observed as an increase in response to non-maximal concentrations of agonist (here, glutamate) in the presence of compound compared to the response to agonist in the absence of compound.
The above described assay operated in two modes. In the first mode, a range of concentrations of the present compounds were added to cells, followed by a single fixed concentration of agonist. If a compound acted as a potentiator, an EC50 value for potentiation and a maximum extent of potentiation by the compound at this concentration of agonist was determined by non-linear curve fitting. In the second mode, several fixed concentrations of the present compounds were added to various wells on a plate, followed by a range of concentrations of agonist for each concentration of present compound; the EC50 values for the agonist at each concentration of compound were determined by non-linear curve fitting. A decrease in the EC50 value of the agonist with increasing concentrations of the present compounds (a leftward shift of the agonist concentration-response curve) is an indication of the degree of mGluR5 potentiation at a given concentration of the present compound. An increase in the EC50 value of the agonist with increasing concentrations of the present compounds (a rightward shift of the agonist concentration-response curve) is an indication of the degree of mGluR5 antagonism at a given concentration of the present compound. The second mode also indicates whether the present compounds also affect the maximum response to mGluR5 to agonists.

T1 sequence (P31424 21-1203): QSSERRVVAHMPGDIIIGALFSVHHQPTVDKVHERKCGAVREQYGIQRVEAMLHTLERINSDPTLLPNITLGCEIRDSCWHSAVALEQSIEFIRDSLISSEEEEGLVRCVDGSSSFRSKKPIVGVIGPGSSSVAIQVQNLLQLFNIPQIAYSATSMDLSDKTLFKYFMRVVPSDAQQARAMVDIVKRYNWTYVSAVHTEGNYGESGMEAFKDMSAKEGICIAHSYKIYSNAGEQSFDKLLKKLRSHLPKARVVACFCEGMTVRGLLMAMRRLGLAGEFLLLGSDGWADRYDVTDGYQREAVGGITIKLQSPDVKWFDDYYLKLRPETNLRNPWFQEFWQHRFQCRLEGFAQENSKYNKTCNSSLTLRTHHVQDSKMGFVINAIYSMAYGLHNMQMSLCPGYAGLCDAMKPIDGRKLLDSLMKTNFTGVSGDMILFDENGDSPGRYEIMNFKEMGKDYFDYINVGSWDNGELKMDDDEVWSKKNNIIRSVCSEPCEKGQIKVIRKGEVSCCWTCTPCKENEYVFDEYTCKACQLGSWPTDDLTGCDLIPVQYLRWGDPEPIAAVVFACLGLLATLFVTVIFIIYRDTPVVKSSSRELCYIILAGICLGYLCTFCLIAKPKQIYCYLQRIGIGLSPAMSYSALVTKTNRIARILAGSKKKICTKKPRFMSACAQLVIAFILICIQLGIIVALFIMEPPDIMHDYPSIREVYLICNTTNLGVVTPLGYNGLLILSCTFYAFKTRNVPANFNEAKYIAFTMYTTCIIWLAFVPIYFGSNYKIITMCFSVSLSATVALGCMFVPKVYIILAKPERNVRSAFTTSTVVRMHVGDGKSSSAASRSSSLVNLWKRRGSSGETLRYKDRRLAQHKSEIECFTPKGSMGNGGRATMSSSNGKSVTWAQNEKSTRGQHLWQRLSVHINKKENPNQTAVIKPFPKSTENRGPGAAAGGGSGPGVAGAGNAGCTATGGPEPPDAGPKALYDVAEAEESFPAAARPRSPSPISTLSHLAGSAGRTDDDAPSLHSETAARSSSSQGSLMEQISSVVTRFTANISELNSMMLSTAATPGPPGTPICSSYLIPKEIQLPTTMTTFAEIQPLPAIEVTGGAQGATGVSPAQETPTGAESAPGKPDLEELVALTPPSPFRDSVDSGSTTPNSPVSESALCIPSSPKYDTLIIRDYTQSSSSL

EC50 [nM] | SMILES
130 | C[C@@H](NC(=O)c1ccc(COc2cccc(F)c2)nc1)C1CCCCC1 [Example 11a, (R)-N-(1-cyclohexylethyl)-6-((3-fluorophenoxy)methyl)nicotinamide]
> 10000 | C[C@H](NC(=O)c1ccc(COc2cccc(F)c2)nc1)C1CCCCC1 [Example 11b, (S)-N-(1-cyclohexylethyl)-6-((3-fluorophenoxy)methyl)nicotinamide]
309 | C[C@@H](NC(=O)c1ccc(COc2cc(F)cc(F)c2)nc1)C1CCCCC1 [Example 12a, (R)-N-(1-cyclohexylethyl)-6-((3,5-difluorophenoxy)methyl)nicotinamide]
> 10000 | C[C@H](NC(=O)c1ccc(COc2cc(F)cc(F)c2)nc1)C1CCCCC1 [Example 12b, (S)-N-(1-cyclohexylethyl)-6-((3,5-difluorophenoxy)methyl)nicotinamide]
81 | C[C@@H](NC(=O)c1ccc(COc2cccc(F)c2)nc1)C(C)(C)C [Example 13a, (R)-N-(3,3-dimethylbutan-2-yl)-6-((3-fluorophenoxy)methyl)nicotinamide]
> 10000 | C[C@H](NC(=O)c1ccc(COc2cccc(F)c2)nc1)C(C)(C)C [Example 13b, (S)-N-(3,3-dimethylbutan-2-yl)-6-((3-fluorophenoxy)methyl)nicotinamide]

same assay, conditions: HEK cells transfected with rat mGluR5; read-out: rmGlu5 PAM EC50

SMILES | EC50 [nM]
O=C(NC1CC2CCC1C2)c1ccc(COc2cccc(F)c2)nc1 (stereo not shown) | 75.9
C[C@@H](NC(=O)c1ccc(COc2cccc(F)c2)nc1)C1CCC1 | 138
C[C@@H](NC(=O)c1ccc(COc2ccccc2F)nc1)C1CCCCC1 | 160
CC(C)(C)CCNC(=O)c1ccc(COc2cccc(F)c2)nc1 | 302
O=C(NC1CCCCC1)c1ccc(COc2cccc(F)c2)nc1 | 447
O=C(Nc1ccccc1F)c1ccc(COc2ccccc2)nc1 | 501
O=C(Nc1ccc(F)cc1F)c1ccc(COc2ccccc2)nc1 | 501
O=C(NCC1CCCCC1)c1ccc(COc2ccccc2)nc1 | 575
O=C(NC1(c2ccccc2)CCC1)c1ccc(COc2cccc(F)c2)nc1 | 912
CC(C)CCNC(=O)c1ccc(COc2ccccc2)nc1 | 966
COc1cccc(OCc2ccc(C(=O)N[C@H](C)C3CCCCC3)cn2)c1 | 1200
CC(C)(C)CCNC(=O)c1ccc(COc2cc(F)cc(F)c2)nc1 | 1580
O=C(NC(C1CC1)C(F)(F)F)c1ccc(COc2cccc(F)c2)nc1 (stereo not shown) | 1900
C[C@@H](NC(=O)c1ccc(COc2ccc(C#N)cc2)nc1)C1CCCCC1 | 2500
C[C@@H](NC(=O)c1ccc(COc2ccncc2)nc1)C1CCCCC1 | 2600
O=C(NC1CCC1)c1ccc(COc2ccccc2)nc1 | 4680

SMILES | EC50 [nM]
CC1(C)CC(CNC(=O)c2ccc(COc3cccc(F)c3)nc2)CCO1 (stereo not shown) | > 10000
O=C(Nc1cc(F)cc(F)c1)c1ccc(COc2ccccc2)nc1 | > 10000
O=C(Nc1cccc(F)c1F)c1ccc(COc2ccccc2)nc1 | > 10000
O=C(Nc1ccc(Cl)cc1)c1ccc(COc2ccccc2)nc1 | > 10000
O=C(NCCc1ccc(Cl)cc1)c1ccc(COc2ccccc2)nc1 | > 10000
CN(C)CCCNC(=O)c1ccc(COc2ccccc2)nc1 | > 10000
COCCCNC(=O)c1ccc(COc2ccccc2)nc1 | > 10000
O=C(NCCc1ccccn1)c1ccc(COc2ccccc2)nc1 | > 10000
CC(C)NC(=O)c1ccc(COc2cc(F)cc(C#N)c2)nc1 | > 10000
O=C(Nc1nccs1)c1ccc(COc2cc(F)cc(F)c2)nc1 | > 10000
O=C(NC1CCCCC1)c1ccc(COc2cc(F)cc(F)c2)nc1 | > 10000
C[C@@H](NC(=O)c1ccc(COc2ccccc2Cl)nc1)C1CCCCC1 | > 10000
C[C@@H](NC(=O)c1ccc(COc2ccccc2C#N)nc1)C1CCCCC1 | > 10000
C[C@@H](NC(=O)c1ccc(COc2cccc(F)c2)nc1)C(C)(C)C [drawing 65] | 81.3
O=C(NC1CC2CCC1C2)c1ccc(COc2ccccc2)nc1 (stereo not shown) [drawing 66] | 120
O=C(NC1CC2CCC1C2)c1ccc(COc2ccccc2)nc1 (stereo not shown) [drawing 70] | 151

More lines, now with the values ahead:

EC50 [nM] | SMILES
158 | CC(C)[C@@H](C)NC(=O)c1ccc(COc2cccc(F)c2)nc1
188 | CC(NC(=O)c1ccc(COc2ccccc2)nc1)C1CCCCC1 (stereo not shown)
210 | C[C@@H](NC(=O)c1ccc(COc2cccc(Cl)c2)nc1)C1CCCCC1
220 | C[C@@H](NC(=O)c1ccc(COc2cccc(C#N)c2)nc1)C1CCCCC1
288 | O=C(NC1C2CC3CC(C2)CC1C3)c1ccc(COc2ccccc2)nc1 (stereo not shown)
360 | C[C@@H](NC(=O)c1ccc(COc2ccc(F)cc2)nc1)C1CCCCC1
603 | O=C(NC12CC3CC(CC(C3)C1)C2)c1ccc(COc2ccccc2)nc1
1060 | C[C@@H](NC(=O)c1ccc(COc2cccc(F)c2)nc1)C1CC1
1200 | O=C(Nc1nccs1)c1ccc(COc2ccccc2)nc1
1260 | O=C(NC(C1CC1)C1CC1)c1ccc(COc2cccc(F)c2)nc1
1510 | O=C(Nc1ccc(F)cn1)c1ccc(COc2ccccc2)nc1
1700 | CC(C)CNC(=O)c1ccc(COc2ccccc2)nc1
2880 | C[C@H](NC(=O)c1ccc(COc2ccccc2)nc1)C1CCCCC1
3240 | C[C@@H](NC(=O)c1ccc(COc2cccc(F)c2)nc1)C1CCOCC1
3310 | CC[C@@H](C)NC(=O)c1ccc(COc2cccc(F)c2)nc1
3390 | O=C(NC1CCC1)c1ccc(COc2cc(F)cc(F)c2)nc1
3400 | COc1ccccc1OCc1ccc(C(=O)N[C@H](C)C2CCCCC2)cn1
3470 | O=C(NC1CCC1)c1ccc(COc2cccc(F)c2)nc1
5250 | O=C(Nc1ccccn1)c1ccc(COc2ccccc2)nc1
> 10000 | COCC(C)NC(=O)c1ccc(COc2cccc(F)c2)nc1 (stereo not shown)
> 10000 | O=C(Nc1ccncc1)c1ccc(COc2ccccc2)nc1
> 10000 | O=C(Nc1ccc(Cl)cn1)c1ccc(COc2ccccc2)nc1
> 10000 | O=C(Nc1cccc(F)c1)c1ccc(COc2ccccc2)nc1
> 10000 | O=C(Nc1ccc(F)cc1)c1ccc(COc2ccccc2)nc1
> 10000 | O=C(Nc1ccc(Cl)cc1F)c1ccc(COc2ccccc2)nc1
> 10000 | O=C(Nc1cccc(Cl)c1)c1ccc(COc2ccccc2)nc1

EC50 [nM] | SMILES
> 10000 | O=C(Nc1cccc(C(F)(F)F)c1)c1ccc(COc2ccccc2)nc1
> 10000 | O=C(Nc1ncccc1F)c1ccc(COc2ccccc2)nc1
> 10000 | O=C(Nc1nncs1)c1ccc(COc2ccccc2)nc1
> 10000 | O=C(NCCN1CCCCC1)c1ccc(COc2ccccc2)nc1
> 10000 | O=C(NCCN1CCOCC1)c1ccc(COc2ccccc2)nc1
> 10000 | O=C(NCCCN1CCOCC1)c1ccc(COc2ccccc2)nc1
> 10000 | CC(C)NC(=O)c1ccc(COc2ccccc2)nc1
> 10000 | COCCNC(=O)c1ccc(COc2ccccc2)nc1
> 10000 | O=C(NCc1ccccn1)c1ccc(COc2ccccc2)nc1
> 10000 | N#Cc1cc(F)cc(OCc2ccc(C(=O)NC3(c4ccccc4)CCC3)cn2)c1
> 10000 | CC(C)(C)CCNC(=O)c1ccc(COc2cc(F)cc(C#N)c2)nc1
> 10000 | C[C@H](NC(=O)c1ccc(COc2cc(F)cc(C#N)c2)nc1)C1CCCCC1
> 10000 | C[C@@H](NC(=O)c1ccc(COc2cc(F)cc(C#N)c2)nc1)C1CCCCC1
> 10000 | N#Cc1cc(F)cc(OCc2ccc(C(=O)NC3CCC3)cn2)c1
> 10000 | O=C(NC1(c2ccccc2)CCC1)c1ccc(COc2cc(F)cc(F)c2)nc1
> 10000 | CC(C)NC(=O)c1ccc(COc2cc(F)cc(F)c2)nc1
> 10000 | O=C(Nc1nccs1)c1ccc(COc2cccc(F)c2)nc1
> 10000 | CC(C)NC(=O)c1ccc(COc2cccc(F)c2)nc1
> 10000 | O=C(NC1(c2ccccc2)CCC1)c1ccc(COc2ccccc2)nc1
> 10000 | O=C(NCC1CC1)c1ccc(COc2ccccc2)nc1
> 10000 | O=C(N[C@H](C1CC1)C(F)(F)F)c1ccc(COc2cccc(F)c2)nc1
> 10000 | C[C@@H](NC(=O)c1ccc(COc2ccccn2)nc1)C1CCCCC1
130 | C[C@@H](NC(=O)c1ccc(COc2cccc(F)c2)nc1)C1CCCCC1 [drawing 67]
146 | C[C@@H](NC(=O)c1ccc(COc2ccccc2)nc1)C1CCCCC1 [drawing 69]
170 | C[C@@H](NC(=O)c1ccc(COc2cccc(F)c2)nc1)C1CCCCC1 [drawing 73]
172 | C[C@@H](NC(=O)c1ccc(COc2cccc(F)c2)nc1)C1CCCCC1 [drawing 74]

same assay, conditions: S configuration enantiomer; read-out: mGluR5 potentiator EC50

EC50 [nM] | SMILES
> 10000 | C[C@H](NC(=O)c1ccc(COc2cccc(F)c2)nc1)C1CCCCC1 [Example 11b, (S)-N-(1-cyclohexylethyl)-6-((3-fluorophenoxy)methyl)nicotinamide]
